Here are results for six compounds from paper PMC9144829, “Histone Deacetylase Inhibitory Activity and Antiproliferative Potential of New [6]-Shogaol Derivatives” (Molecules, 2022).

In one assay the test system is H-69 cells. The assay is described as follows: MTT assay, H-69 cells. The conditions noted are these: Homo sapiens, NCI-H69, read-out: IC50 Values (Mean ± SD; n = 3). In kind it is cell-based. On the procedure: (§1) The MTT reduction assay was performed with non-cancer (Vero), human cervical cancer (HeLa), human colon cancer (HCT116), human breast adenocarcinoma cancer (MCF-7), and cholangiocarcinoma (H-69 […], KKU-100 and KKU-M213B) cell lines according to the previously described method. Briefly, cells were seeded in 96-well plates. The next day, cells were exposed to the selected compounds at various concentrations and incubated for 24, 48 and 72 h. After incubation, the culture medium was exchanged with 110 µL of MTT (0.5 mg/mL in PBS medium) and further incubated for 2 h. The amount of MTT formazan product was determined after dissolving in DMSO by measuring its absorbance with a microplate reader (Bio-Rad Laboratories, Hercules, CA, USA) at a test wavelength of 550 nm and a reference wavelength of 655 nm. The cell viability was expressed as a percentage of the viable cells of control culture conditions, and the IC50 values of each group were calculated.

In another assay the target is histone deacetylase. The conditions noted are these: Figure 1; read-out: IC50 (known histone deacetylase inhibitors); cited from earlier work.
The subject of assay [1] is human cervical cancer (HeLa) cells. The assay is described as follows: MTT assay, HeLa cells. In kind it is cell-based. The conditions noted are these: for selectivity towards HeLa cells than non-cancer cells: HeLa versus non-cancer cells; for IC50: Homo sapiens, read-out: IC50 Values (Mean ± SD; n = 3), HeLa cells. On the procedure: as §1
The test system of assay [2] is cholangiocarcinoma KKU-100 cells. Nature of the assay: MTT assay, KKU-100 cells. The format is cell-based, human. The note with it: Homo sapiens, KKU100, read-out: IC50 Values (Mean ± SD; n = 3). On the procedure:
as §1

Another assay concerns Vero cells. The assay is described as follows: MTT assay, non-cancer Vero cells. The format is cell-based. The conditions noted are these: Chlorocebus sabaeus, read-out: IC50 Values (Mean ± SD; n = 3). Here is the method: as §1
Assay [3] relates to cholangiocarcinoma KKU-M213B cells. The assay is described as follows: MTT assay, KKU-M213B cells. The note with it: Homo sapiens, read-out: IC50 Values (Mean ± SD; n = 3). The format is cell-based, human. Here is the method: as §1
The subject of assay [4] is human breast adenocarcinoma cancer (MCF-7) cells. The assay is described as follows: MTT assay, MCF-7 cells. The format is cell-based. The note with it: Homo sapiens, MCF7, read-out: IC50 Values (Mean ± SD; n = 3). Here is the method: as §1
Assay [5] relates to HDAC enzymes (HeLa nuclear extract, mixed-HDAC isoforms). Nature of the assay: Fluor-de-Lys HDAC activity assay kit, HeLa nuclear extract as source of HDAC enzymes. The note with it: compounds at 100 µM. In kind it is biochemical, human. On the procedure: The in vitro HDAC inhibitions of the obtained compounds were carried out with the assay kit containing mixed-HDAC isoforms. […] Therefore, the results were not fully related. However, compounds with good binding affinities should have the potential to be specific HDAC inhibitors for each isoform.
The semi-synthetic derivatives were evaluated for their ability to inhibit HDAC enzymes. Inhibition of HDAC activity in vitro was assessed using the Fluor-de-Lys HDAC activity assay kit (Biomol, Enzo Life Sciences International, Inc., Farmingdale, NY, USA). The HeLa nuclear extract provided with the kit was used as a source of HDAC enzymes for the in vitro study. TSA was used as the positive control. The HeLa nuclear extract, substrate, buffer and inhibitors were incubated. Deacetylation of the substrate was performed next by adding a developer to generate a fluorophore. The spectra Max Gemini XPS microplate spectrofluorometer (Molecular Devices, San Jose, CA, USA) was used to measure fluorescence signal with excitation at 360 nm and emission at 460 nm. A decrease in fluorescence signal indicated an inhibition of HDAC activity. Trichostatin A (TSA) was used as a positive control. All experiments were carried out in triplicate.

Assay [6] has as its system human colon cancer (HCT116) cells. The assay is described as follows: MTT assay, HCT116 cells. In kind it is cell-based. The conditions noted are these: Homo sapiens, HCT-116, read-out: IC50 Values (Mean ± SD; n = 3). Here is the method: as §1

Like-named read-outs stand apart in the source and are kept apart here.

For the compound `CCCCC/C=C/C(=O)CCc1ccc(O)c(OC)c1` [Compound 4, [6]-shogaol], the IC50 in the assay with H-69 cells (24 h) is 38.4 ± 0.84 µM; in the assay on H-69 cells (48 h), 32 ± 0.55 µM; with H-69 cells (72 h), 24.78 ± 0.24 µM; on histone deacetylase it was 50 µM; in assay [1] (24 h), 16.9 ± 0.8 µM; in [1] (48 h) it was 9.26 ± 0.46 µM. In addition, the IC50 in assay [1] (72 h) amounted to 8.1 ± 0.29 µM; in [2] (24 h) it was 27.64 ± 0.26 µM; in assay [2] (48 h) it was 18.9 ± 0.48 µM; in assay [2] (72 h) it was 17.04 ± 0.04 µM; in the assay with Vero cells (24 h) it was 37.6 ± 0.94 µM; in the assay on Vero cells (48 h), 36 ± 0.95 µM. In addition, the IC50 came to 23.3 ± 0.24 µM in the assay with Vero cells (72 h); 17.95 ± 0.05 µM in assay [3] (24 h); 12.9 ± 0.47 µM in [3] (48 h); 9.91 ± 0.17 µM in [3] (72 h); 24.8 ± 0.66 µM in [4] (24 h); 16.54 ± 0.15 µM in assay [4] (48 h). Further, the concentration for half-maximal inhibition (IC50) came out at 13.39 ± 0.07 µM in [4] (72 h), 17.3 ± 0.57 µM in [6] (24 h), 12.4 ± 0.15 µM in assay [6] (48 h) and 12.3 ± 0.13 µM in [6] (72 h). Moreover, the “selectivity towards HeLa cells than non-cancer cells” value in assay [1] amounted to 3 fold. Also, the “%HDAC Inhibition” value in assay [5] was 86%.
As to `CCCCC/C=C/C(CCc1ccc(O)c(OC)c1)=N\Nc1nc2ccccc2s1` [Compound 4d, 4-((3Z,4E)-3-(2-(Benzo[d]thiazol-2-yl)hydrazono)dec-4-en-1-yl)-2-methoxyphenol], the IC50 worked out at 51.4 ± 1.51 µM in the assay with H-69 cells (24 h); 41.4 ± 0.61 µM in the assay on H-69 cells (48 h); 29.4 ± 0.89 µM with H-69 cells (72 h); 51.6 ± 1.92 µM in assay [1] (24 h); 37.2 ± 1.33 µM in assay [1] (48 h); 33.7 ± 0.76 µM in assay [1] (72 h). In addition, the IC50 was determined as 41.6 ± 1.24 µM in [2] (24 h); 31.5 ± 0.8 µM in assay [2] (48 h); 25.75 ± 0.2 µM in assay [2] (72 h); 170 ± 6.98 µM in the assay on Vero cells (24 h); 70 ± 1.27 µM in the assay on Vero cells (48 h); 60.1 ± 1.69 µM with Vero cells (72 h). Also, the IC50 in assay [3] (24 h) was 39.84 ± 0.29 µM; in assay [3] (48 h), 20.6 ± 0.18 µM; in assay [3] (72 h) it was 18.2 ± 0.75 µM; in [4] (24 h), 104 ± 3.17 µM; in assay [4] (48 h), 57.8 ± 2.37 µM; in assay [4] (72 h), 25.5 ± 1.15 µM. The IC50 stood at 40.1 ± 1.47 µM in assay [6] (24 h), 28.3 ± 0.79 µM in assay [6] (48 h) and 26.63 ± 0.15 µM in assay [6] (72 h). Besides, in assay [5], the “%HDAC Inhibition” value stood at 80%.
With `CCCCCC1CC(CCc2ccc(O)c(OC)c2)=NN1c1ccc([N+](=O)[O-])cc1` (stereo not drawn) [Compound 5j, 2-methoxy-4-(2-(1-(4-nitrophenyl)-5-pentyl-4,5-dihydro-1H-pyrazol-3-yl)ethyl)phe nol], the IC50 was determined as 44.1 ± 0.89 µM with H-69 cells (24 h); 34.6 ± 0.41 µM in the assay on H-69 cells (48 h); 26.4 ± 0.43 µM with H-69 cells (72 h); 26.8 ± 0.62 µM in [1] (24 h); 11.6 ± 0.6 µM in [1] (48 h); 8.09 ± 0.03 µM in assay [1] (72 h). Also, the IC50 in assay [2] (24 h) is 27.2 ± 0.59 µM; in assay [2] (48 h) it was 22.4 ± 0.65 µM; in assay [2] (72 h), 17.45 ± 0.14 µM; in the assay with Vero cells (24 h), 41.6 ± 2.99 µM; in the assay on Vero cells (48 h), 32.2 ± 1.31 µM; in the assay on Vero cells (72 h) it was 26.1 ± 0.47 µM. The half-inhibitory concentration (IC50) is 23.9 ± 0.85 µM in assay [3] (24 h); 19.3 ± 0.9 µM in assay [3] (48 h); 13.8 ± 0.16 µM in assay [3] (72 h); 27.9 ± 0.86 µM in [4] (24 h); 13.8 ± 0.56 µM in assay [4] (48 h); 11.6 ± 0.44 µM in assay [4] (72 h). For the same compound, the half-maximal inhibitory concentration (IC50) in assay [6] (24 h) was 42.7 ± 2.23 µM; in assay [6] (48 h), 10.2 ± 0.43 µM; in assay [6] (72 h), 9.65 ± 0.17 µM. In [5], the “%HDAC Inhibition” value is 85%.
Regarding `CCCCCC1CC(CCc2ccc(O)c(OC)c2)=NN1c1ccc(C(=O)O)cc1` (stereo not drawn) [Compound 5k, 4-(3-(4-hydroxy-3-methoxyphenethyl)-5-pentyl-4,5-dihydro-1H-pyrazol-1-yl)benzo ic acid], the IC50 came out at 68.7 ± 1.15 µM with H-69 cells (24 h); 52.7 ± 1.73 µM in the assay with H-69 cells (48 h); 47.6 ± 0.73 µM in the assay on H-69 cells (72 h); 83.8 ± 1.83 µM in assay [1] (24 h); 56.8 ± 1.24 µM in assay [1] (48 h); 23.1 ± 0.76 µM in [1] (72 h). Besides, the IC50 in assay [2] (24 h) came out at 68.1 ± 1.98 µM; in assay [2] (48 h), 38.9 ± 0.65 µM; in [2] (72 h) it was 26.99 ± 0.08 µM; with Vero cells (24 h), 143 ± 2.15 µM; in the assay on Vero cells (48 h) it was 128 ± 1.73 µM; in the assay on Vero cells (72 h), 116.7 ± 1.13 µM. In addition, the IC50 is 63.2 ± 2.52 µM in assay [3] (24 h); 35.7 ± 1.4 µM in assay [3] (48 h); 29.1 ± 1.17 µM in [3] (72 h); 56.6 ± 3.21 µM in assay [4] (24 h); 50.5 ± 1.64 µM in assay [4] (48 h); 31.8 ± 0.88 µM in [4] (72 h). The figures for the IC50 in assay [6] (24 h), in assay [6] (48 h) and in assay [6] (72 h) were 94.4 ± 2.7 µM, 39.2 ± 1.06 µM and 34.5 ± 0.66 µM, respectively. Moreover, in assay [1], the “selectivity towards HeLa cells than non-cancer cells” value is listed as “about 5 fold”. Moreover, in assay [5], the “%HDAC Inhibition” value came out at 83%.
On to `COc1cc(CNC(=O)CCCCC(O)CC(C)C)ccc1O` (stereo not drawn) [Hydroxycapsaicin (2), hydroxycapsaicin], for which the IC50 at histone deacetylase is 72 µM.
`CCCCC[C@H](O)CC(=O)CCc1ccc(O)c(OC)c1` [[6]-Gingerol (3), [6]-gingerol]: the IC50 on histone deacetylase is 61 µM.
